Laboratory results published in article PMC6389425 (Journal of molecular biology, 2019).
Positions count from the first letter of the chain named.

Experiments:
Fp2GUS [1] = biological target: T1, Fp2GUS (Faecalibacterium prausnitzii, UniProt D4K3H3); assay: fluorescence of 4-methylumbelliferone release, initial rates; format: biochemical; conditions: pH 6.5 HEPES or pH 5.5 acetate; FMN added (5 μL of 25 μM in 50 μL)
T1 sequence (D4K3H3 1-746): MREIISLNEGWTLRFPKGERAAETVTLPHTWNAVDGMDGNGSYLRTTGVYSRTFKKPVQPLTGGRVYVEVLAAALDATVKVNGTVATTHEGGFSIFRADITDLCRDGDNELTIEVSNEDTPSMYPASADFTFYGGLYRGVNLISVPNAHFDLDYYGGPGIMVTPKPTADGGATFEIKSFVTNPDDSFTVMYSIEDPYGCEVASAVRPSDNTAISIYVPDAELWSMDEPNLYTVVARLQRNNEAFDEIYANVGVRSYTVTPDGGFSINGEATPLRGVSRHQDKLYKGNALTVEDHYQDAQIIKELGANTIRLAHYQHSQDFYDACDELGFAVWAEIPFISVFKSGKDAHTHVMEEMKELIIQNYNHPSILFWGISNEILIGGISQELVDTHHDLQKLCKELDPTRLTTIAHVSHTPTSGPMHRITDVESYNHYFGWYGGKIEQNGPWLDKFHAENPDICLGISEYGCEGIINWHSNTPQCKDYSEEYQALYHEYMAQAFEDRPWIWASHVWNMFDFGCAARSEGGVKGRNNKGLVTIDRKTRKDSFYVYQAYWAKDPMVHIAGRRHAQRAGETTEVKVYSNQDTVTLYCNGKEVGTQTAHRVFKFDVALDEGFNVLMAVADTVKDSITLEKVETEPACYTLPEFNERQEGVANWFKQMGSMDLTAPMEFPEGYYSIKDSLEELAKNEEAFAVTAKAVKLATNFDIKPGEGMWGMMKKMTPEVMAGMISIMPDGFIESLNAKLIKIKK

Rh2GUS [2] = biological target: T2, Rh2GUS (Roseburia hominis, UniProt Z9OYF2D7T4, Y182A); assay: as above; format: biochemical; conditions: pH 6.5 HEPES or pH 5.5 acetate; no FMN added
T2 sequence (Z9OYF2D7T4 24-780 Y182A): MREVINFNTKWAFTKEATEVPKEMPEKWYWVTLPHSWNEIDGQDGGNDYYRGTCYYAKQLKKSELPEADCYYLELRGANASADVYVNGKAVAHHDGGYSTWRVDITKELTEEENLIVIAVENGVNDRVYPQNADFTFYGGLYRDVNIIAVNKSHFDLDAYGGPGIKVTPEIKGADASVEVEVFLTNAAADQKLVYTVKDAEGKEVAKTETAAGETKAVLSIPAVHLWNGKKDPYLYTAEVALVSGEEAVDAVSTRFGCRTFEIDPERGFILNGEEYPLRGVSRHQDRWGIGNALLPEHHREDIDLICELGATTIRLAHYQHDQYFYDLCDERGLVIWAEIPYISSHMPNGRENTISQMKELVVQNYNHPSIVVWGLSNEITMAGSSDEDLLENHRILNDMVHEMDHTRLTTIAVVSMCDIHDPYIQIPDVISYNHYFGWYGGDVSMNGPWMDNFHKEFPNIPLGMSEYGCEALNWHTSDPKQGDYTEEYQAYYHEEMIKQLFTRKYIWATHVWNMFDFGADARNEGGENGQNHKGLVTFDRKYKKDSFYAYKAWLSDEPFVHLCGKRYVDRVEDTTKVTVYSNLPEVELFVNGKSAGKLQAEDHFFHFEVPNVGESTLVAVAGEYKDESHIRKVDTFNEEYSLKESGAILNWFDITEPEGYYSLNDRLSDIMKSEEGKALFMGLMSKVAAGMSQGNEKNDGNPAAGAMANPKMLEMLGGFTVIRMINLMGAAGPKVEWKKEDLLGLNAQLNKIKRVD

RiGUS = biological target: T3, RiGUS (Roseburia inulinivorans, UniProt Z9MQZ9NYJ7); assay: as above; format: biochemical; conditions: pH 6.5 HEPES or pH 5.5 acetate; FMN added (5 μL of 25 μM in 50 μL)
T3 sequence (Z9MQZ9NYJ7 1-736): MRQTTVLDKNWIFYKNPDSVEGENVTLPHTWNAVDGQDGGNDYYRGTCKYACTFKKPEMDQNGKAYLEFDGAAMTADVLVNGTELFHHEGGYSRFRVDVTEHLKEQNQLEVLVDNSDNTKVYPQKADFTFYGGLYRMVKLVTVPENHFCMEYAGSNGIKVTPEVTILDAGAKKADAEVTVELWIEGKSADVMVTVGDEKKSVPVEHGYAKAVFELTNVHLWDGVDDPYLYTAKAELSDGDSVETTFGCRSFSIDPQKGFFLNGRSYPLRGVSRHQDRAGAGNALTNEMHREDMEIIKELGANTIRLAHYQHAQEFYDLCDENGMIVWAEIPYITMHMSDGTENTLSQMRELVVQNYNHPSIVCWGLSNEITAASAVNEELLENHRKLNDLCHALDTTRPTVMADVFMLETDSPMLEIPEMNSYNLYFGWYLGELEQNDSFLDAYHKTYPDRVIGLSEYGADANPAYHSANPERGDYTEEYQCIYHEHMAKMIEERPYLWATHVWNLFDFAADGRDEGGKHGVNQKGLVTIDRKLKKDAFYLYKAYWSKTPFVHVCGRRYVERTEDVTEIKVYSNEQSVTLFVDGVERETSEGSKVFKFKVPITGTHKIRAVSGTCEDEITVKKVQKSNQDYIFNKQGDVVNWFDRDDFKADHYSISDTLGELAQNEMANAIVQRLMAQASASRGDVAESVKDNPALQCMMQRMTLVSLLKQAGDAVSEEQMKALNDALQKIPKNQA

Rg3GUS = biological target: T4, Rg3GUS (Mediterraneibacter gnavus, UniProt Z9EEQ2OTY4); assay: as above; format: biochemical; conditions: pH 6.5 HEPES or pH 5.5 acetate; FMN added (5 μL of 25 μM in 50 μL)
T4 sequence (Z9EEQ2OTY4 24-777): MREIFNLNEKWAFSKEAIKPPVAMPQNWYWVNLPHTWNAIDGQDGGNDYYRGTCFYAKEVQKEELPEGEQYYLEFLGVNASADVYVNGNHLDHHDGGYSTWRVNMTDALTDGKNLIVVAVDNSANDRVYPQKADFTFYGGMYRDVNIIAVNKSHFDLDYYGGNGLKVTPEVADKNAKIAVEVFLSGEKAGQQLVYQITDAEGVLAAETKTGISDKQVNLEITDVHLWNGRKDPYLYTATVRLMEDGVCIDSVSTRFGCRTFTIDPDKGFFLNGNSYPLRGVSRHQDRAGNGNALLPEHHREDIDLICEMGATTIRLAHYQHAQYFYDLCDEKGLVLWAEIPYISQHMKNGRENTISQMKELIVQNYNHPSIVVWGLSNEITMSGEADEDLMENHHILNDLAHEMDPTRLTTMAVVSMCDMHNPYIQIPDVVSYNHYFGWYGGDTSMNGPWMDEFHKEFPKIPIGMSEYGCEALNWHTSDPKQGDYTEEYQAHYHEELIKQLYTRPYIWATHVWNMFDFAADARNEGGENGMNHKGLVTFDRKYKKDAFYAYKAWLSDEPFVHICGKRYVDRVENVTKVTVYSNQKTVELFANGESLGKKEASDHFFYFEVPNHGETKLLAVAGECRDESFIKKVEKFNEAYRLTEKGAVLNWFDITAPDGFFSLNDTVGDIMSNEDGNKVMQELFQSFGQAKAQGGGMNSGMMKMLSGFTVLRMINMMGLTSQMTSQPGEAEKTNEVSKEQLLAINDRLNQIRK

Rh2GUS [3] = biological target: T5, Rh2GUS (Roseburia hominis, UniProt Z9OYF2D7T4); assay: as above; format: biochemical; conditions: pH 6.5 HEPES or pH 5.5 acetate; FMN added (5 μL of 25 μM in 50 μL)
T5 sequence (Z9OYF2D7T4 24-780): T2 sequence (Z9OYF2D7T4 24-780 Y182A) with A159Y

Fp2GUS [4] = biological target: T1, Fp2GUS; assay: isothermal titration calorimetry; format: binding
BvGUS = assay: isothermal titration calorimetry; format: binding, Butyrivibrio fibrisolvens; conditions: 25 °C; 20 mM HEPES, 50 mM NaCl, pH 7.4

| SMILES | KM (Fp2GUS [1]) | KM (Rh2GUS [2]) | KM (RiGUS) | KM (Rg3GUS) | KM (Rh2GUS [3]) | Kd (Fp2GUS [4]) [nM] | Kd (BvGUS) [nM] |
| --- | --- | --- | --- | --- | --- | --- | --- |
| Cc1cc(=O)oc2cc(O[C@@H]3O[C@H](C(=O)O)[C@@H](O)[C@H](O)[C@H]3O)ccc12 [4-MUG] | Each GUS was able to hydrolyze the fluorescent reporter substrate 4-methylumbelliferyl glucuronide (4-MUG) | FMN-binding mutants of Rh2GUS, Rg3GUS, and BvGUS all display significantly higher KM values than WT | Each GUS was able to hydrolyze the fluorescent reporter substrate 4-methylumbelliferyl glucuronide (4-MUG) | Each GUS was able to hydrolyze the fluorescent reporter substrate 4-methylumbelliferyl glucuronide (4-MUG) | Each GUS was able to hydrolyze the fluorescent reporter substrate 4-methylumbelliferyl glucuronide (4-MUG) | – | – |
| Cc1cc2nc3c(=O)[nH]c(=O)nc-3n(C[C@H](O)[C@H](O)[C@H](O)COP(=O)(O)O)c2cc1C [FMN] | – | – | – | – | – | 1050 ± 60 | 1270 |
